# Where a name gives a salt, the structure may show the parent alone. Read-outs that look alike come from different tables or passages of the source.
# How the values were obtained:
# OAT3 [1] = target: T1, OAT3 (Homo sapiens, UniProt Q8TCC7); assay: Inhibition of OAT-mediated fluorescein uptake in ciPTEC-OAT3
# T1 sequence (Q8TCC7 1-542): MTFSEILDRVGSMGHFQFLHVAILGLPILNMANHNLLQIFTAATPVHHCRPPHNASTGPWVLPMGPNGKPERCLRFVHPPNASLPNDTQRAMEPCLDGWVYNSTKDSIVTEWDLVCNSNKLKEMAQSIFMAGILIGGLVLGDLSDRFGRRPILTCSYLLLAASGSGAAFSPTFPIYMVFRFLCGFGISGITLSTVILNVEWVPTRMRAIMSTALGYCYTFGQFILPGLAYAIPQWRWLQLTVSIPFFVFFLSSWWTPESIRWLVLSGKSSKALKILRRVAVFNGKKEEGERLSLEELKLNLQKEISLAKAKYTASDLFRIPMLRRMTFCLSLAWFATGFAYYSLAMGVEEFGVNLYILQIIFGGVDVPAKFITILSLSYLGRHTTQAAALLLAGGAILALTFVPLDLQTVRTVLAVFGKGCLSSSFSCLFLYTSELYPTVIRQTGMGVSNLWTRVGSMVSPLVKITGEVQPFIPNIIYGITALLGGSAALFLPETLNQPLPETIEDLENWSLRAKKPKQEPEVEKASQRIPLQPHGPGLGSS
# Description: (§1) All chemicals were obtained from Sigma, unless stated otherwise. Uptake was stopped by washing three times with ice-cold HBSS (4°C).
# (§2) Non-linear regression with variable slope constraining the top to 100% was used to fit the data after background subtraction with GraphPad Prism. Statistics was performed by two-way ANOVA (two-tailed, α = 0.05) using GraphPad Prism as well. All data is presented as mean ± SEM of at least three separate experiments (n = 3) performed in triplicate, unless stated otherwise.
# OAT3 [2] = target: T1, OAT3; conditions: substrate estrone sulfate, Xenopus-OAT3; read-out: IC50 (literature); cited from earlier work
# OAT1 [3] = target: T2, OAT1 (Homo sapiens, UniProt Q4U2R8); assay: Inhibition of OAT-mediated fluorescein uptake in ciPTEC-OAT1; type: cell-based; design: host or cells: ciPTEC (human conditionally immortalized proximal tubule epithelial cells), lentiviral transduction; conditions: for Effect on OAT-mediated fluorescein uptake (in words): ciPTEC-OAT1, fluorescein 1 μM, 10 min; for DDI index Cmax/IC50: ciPTEC-OAT1, with the second-listed (higher) Cmax
# T2 sequence (Q4U2R8 1-563): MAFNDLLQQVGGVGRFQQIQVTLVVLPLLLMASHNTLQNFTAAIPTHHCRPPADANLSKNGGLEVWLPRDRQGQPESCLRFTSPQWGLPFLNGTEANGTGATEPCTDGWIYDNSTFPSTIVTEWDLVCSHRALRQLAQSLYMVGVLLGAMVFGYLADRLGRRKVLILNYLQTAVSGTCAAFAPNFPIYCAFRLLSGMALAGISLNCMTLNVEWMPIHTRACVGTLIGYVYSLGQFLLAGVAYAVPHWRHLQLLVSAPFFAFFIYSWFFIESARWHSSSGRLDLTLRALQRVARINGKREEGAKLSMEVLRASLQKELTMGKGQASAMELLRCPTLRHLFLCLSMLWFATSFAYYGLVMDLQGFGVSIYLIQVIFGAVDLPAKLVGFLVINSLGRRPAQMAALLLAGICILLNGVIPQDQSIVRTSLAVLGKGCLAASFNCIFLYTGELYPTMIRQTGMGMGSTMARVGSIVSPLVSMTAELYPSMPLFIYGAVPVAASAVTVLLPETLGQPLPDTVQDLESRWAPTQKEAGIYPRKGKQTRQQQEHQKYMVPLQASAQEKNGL
# Description: as §1, §2
# [4] = design: method as in PMID 19445515; conditions: cited from earlier work
# ciPTEC-OAT3 = assay: MTT viability assay, ciPTEC-OAT3; type: cell-based, human; conditions: for Cell viability (MTT), concentration and time dependence: ciPTEC-OAT3, 24, 48 and 72 h
# Description: Cell toxicity was analyzed further in presence of MRP and BCRP efflux inhibitors MK571 (5 μM) and KO143 (10 μM).
# [5] = plasma, maximal free plasma concentration, 47 (zidovudine), cited from earlier work
# hOAT1-CHO and HEK-OAT1 = conditions: cited from earlier work
# ciPTEC-OAT1 = assay: MTT viability assay, ciPTEC-OAT1; type: cell-based, human; conditions: for Cell viability (MTT): ciPTEC-OAT1, 1 mM, 48 h, serum-free medium; for Cell viability (MTT), concentration and time dependence: ciPTEC-OAT1, 24, 48 and 72 h
# [6] = MTT viability assay, ciPTEC-OAT1; type: cell-based, human; conditions: human, ciPTEC-OAT1 cells (monolayers, 96-well); for IC50 at 24 h: read-out: IC50 on cell viability (MTT), 24 h; for IC50 at 72 h: read-out: IC50 on cell viability (MTT), 72 h
# OAT1 [7] = target: T2, OAT1; design: method as in PMID 23856525; conditions: substrate PAH, HeLa-OAT1; read-out: IC50 (literature); cited from earlier work
# OAT1 [8] = target: T2, OAT1; assay: OAT1-mediated fluorescein uptake kinetics in ciPTEC-OAT1; type: cell-based; design: host or cells: ciPTEC (human conditionally immortalized proximal tubule epithelial cells), lentiviral transduction
# Description: as §1
# OAT3 [9] = target: T1, OAT3; assay: OAT3-mediated fluorescein uptake kinetics in ciPTEC-OAT3; type: cell-based; design: host or cells: ciPTEC (human conditionally immortalized proximal tubule epithelial cells), lentiviral transduction; conditions: n = 4
# Description: as §1
# [10] = substrate: O=C1OC2(c3ccc(O)cc3Oc3cc(O)ccc32)c2ccccc21; assay: cells, lysate or membranes; conditions: other: fluorescein uptake, 10 min, Michaelis-Menten with linear diffusion, mean ± SEM, n = 4; 37.0 °C
# [11] = first-listed (lower) value per drug, ref 40 (adefovir), 42 (cidofovir), 45 (tenofovir)
# [12] = second-listed (higher) value per drug, ref 41 (adefovir), 43 (cidofovir), 46 (tenofovir)
# [13] = 120 h, OAT1 overexpression cells, read-out: IC50 on cell viability (literature), 120 h
# [14] = read-out: IC50 on cell viability (literature), 48 h, OAT1 overexpression cells
Molecule,IC50 (OAT1 [3]) [µM],Effect on OAT-mediated fluorescein uptake (in words) (OAT1 [3]),Renal excretion of unchanged drug (in words) [4],"Cell viability (MTT), concentration and time dependence (ciPTEC-OAT3)","Cmax [5, 11] [µM]","Cmax [5, 12] [µM]",IC50 (hOAT1-CHO and HEK-OAT1; [13]) [µM],IC50 (hOAT1-CHO and HEK-OAT1; [14]) [µM],Cell viability (MTT) (ciPTEC-OAT1),"Cell viability (MTT), concentration and time dependence (ciPTEC-OAT1)",IC50 at 48 h [6] [µM],IC50 at 24 h [6] [µM],IC50 at 72 h [6] [µM],other results
"C[C@]12CC[C@@H]3c4ccc(OS(=O)(=O)O)cc4CC[C@H]3[C@@H]1CCC2=O [Estrone sulfate, estrone sulfate]",–,–,–,–,–,–,–,–,–,–,–,–,–,"IC50 (OAT3 [1]; read-out: IC50 of fluorescein uptake, ciPTEC-OAT3, fluorescein 1 μM, 10 min, HBSS 37°C, mean ± SEM, n = 4, cimetidine: apparent IC50 due to partial inhibition): 2.1 ± 0.3 µM; IC50 (OAT3 [2]): 3 µM"
"Nc1ccn(C[C@@H](CO)OCP(=O)(O)O)c(=O)n1 [Cidofovir, cidofovir]",71 ± 34,Concentration-dependent inhibition,largely excreted unchanged by the kidneys,less pronounced,15.8,26.3,3 ± 1,0.5 ± 0.2,significantly affected cell viability,concentration- and time-dependent decrease in viability,130 ± 58,613 ± 384,69 ± 2,–
"Nc1ncnc2c1ncn2CCOCP(=O)(O)O [Adefovir, adefovir]",23 ± 4,Concentration-dependent inhibition,largely excreted unchanged by the kidneys,less pronounced,1.6,38.8,1.4 ± 0.7,0.22 ± 0.08,significantly affected cell viability,concentration- and time-dependent decrease in viability,303 ± 38,462 ± 52,230 ± 37,DDI index Cmax/IC50 (OAT1 [3]): 4.2; IC50 (OAT1 [7]): 8.1 µM
"C[C@H](Cn1cnc2c(N)ncnc21)OCP(=O)(O)O [Tenofovir, tenofovir]",42 ± 8,Concentration-dependent inhibition,largely excreted unchanged by the kidneys,less pronounced,0.52,0.72,21 ± 7,10 ± 2,significantly affected cell viability,concentration- and time-dependent decrease in viability,189 ± 48,114 ± 25,223 ± 67,"DDI index Cmax/IC50 (OAT1 [3]): 0.019; Cell viability (MTT) (ciPTEC-OAT3; ciPTEC-OAT3, 1 mM, 48 h, serum-free medium): slightly decreased; IC50 (OAT1 [7]): 29.3 µM"
"O=C1OC2(c3ccc(O)cc3Oc3cc(O)ccc32)c2ccccc21 [Fluorescein, fluorescein]",–,–,–,–,–,–,–,–,–,–,–,–,–,"Vmax (OAT1 [8]; fluorescein uptake, 10 min, n = 4): 695 ± 84 RFU; Fluorescein affinity for OAT1 relative to OAT3 (OAT1 [8]; from Km values of Table I): approximately fivefold higher; Kd (OAT1 [8]; passive diffusion component kd of fluorescein uptake, n = 4): 2.4 ± 1.2 RFU*L/μmol; Vmax (OAT3 [9]; fluorescein uptake, 10 min): 384 ± 103 RFU; Kd (OAT3 [9]; passive diffusion component kd of fluorescein uptake): 4.3 ± 0.9 RFU*L/μmol"
"Nc1ccc(C(=O)NCC(=O)O)cc1 [Para-aminohippuric acid, para-aminohippuric acid]",–,–,–,–,–,–,–,–,–,–,–,–,–,"IC50 (OAT3 [1]): 152 ± 3 µM; Fluorescein uptake by flow cytometry in presence of inhibitor (OAT3 [1]; transduced ciPTEC-OAT3, fluorescein 1 μM, 10 min, inhibitor 100 μM): sensitive to para-aminohippuric acid-induce inhibition"
OAT3 (Homo sapiens) (protein) MTFSEILDRVGSMGHFQFLHVAILGLPILNMANHNLLQIFTAATPVHHCRPPHNASTGPWVLPMGPNGKPERCLRFVHPPNASLPNDTQRAMEPCLDGWVYNSTKDSIVTEWDLVCNSNKLKEMAQSIFMAGILIGGLVLGDLSDRFGRRPILTCSYLLLAASGSGAAFSPTFPIYMVFRFLCGFGISGITLSTVILNVEWVPTRMRAIMSTALGYCYTFGQFILPGLAYAIPQWRWLQLTVSIPFFVFFLSSWWTPESIRWLVLSGKSSKALKILRRVAVFNGKKEEGERLSLEELKLNLQKEISLAKAKYTASDLFRIPMLRRMTFCLSLAWFATGFAYYSLAMGVEEFGVNLYILQIIFGGVDVPAKFITILSLSYLGRHTTQAAALLLAGGAILALTFVPLDLQTVRTVLAVFGKGCLSSSFSCLFLYTSELYPTVIRQTGMGVSNLWTRVGSMVSPLVKITGEVQPFIPNIIYGITALLGGSAALFLPETLNQPLPETIEDLENWSLRAKKPKQEPEVEKASQRIPLQPHGPGLGSS,–,–,–,–,–,–,–,–,–,–,–,–,–,Km [10]: 3.7 ± 0.5 µM
OAT1 (Homo sapiens) (protein) MAFNDLLQQVGGVGRFQQIQVTLVVLPLLLMASHNTLQNFTAAIPTHHCRPPADANLSKNGGLEVWLPRDRQGQPESCLRFTSPQWGLPFLNGTEANGTGATEPCTDGWIYDNSTFPSTIVTEWDLVCSHRALRQLAQSLYMVGVLLGAMVFGYLADRLGRRKVLILNYLQTAVSGTCAAFAPNFPIYCAFRLLSGMALAGISLNCMTLNVEWMPIHTRACVGTLIGYVYSLGQFLLAGVAYAVPHWRHLQLLVSAPFFAFFIYSWFFIESARWHSSSGRLDLTLRALQRVARINGKREEGAKLSMEVLRASLQKELTMGKGQASAMELLRCPTLRHLFLCLSMLWFATSFAYYGLVMDLQGFGVSIYLIQVIFGAVDLPAKLVGFLVINSLGRRPAQMAALLLAGICILLNGVIPQDQSIVRTSLAVLGKGCLAASFNCIFLYTGELYPTMIRQTGMGMGSTMARVGSIVSPLVSMTAELYPSMPLFIYGAVPVAASAVTVLLPETLGQPLPDTVQDLESRWAPTQKEAGIYPRKGKQTRQQQEHQKYMVPLQASAQEKNGL,–,–,–,–,–,–,–,–,–,–,–,–,–,Km [10]: 0.8 ± 0.1 µM
